Reference: patent US7300946B2, “N-(substituted arylmethyl)-4-(disubstituted methyl) piperidines and pyridines” (Bayer CropScience AG, priority 2002, dated 2007)

Tested on: tobacco budworm (Heliothis virescens [Fabricius])
Test: surface-treated diet test against the tobacco budworm
Format: in vivo
Settings: tobacco budworm second instar larvae, surface-treated diet, 0.25 millimoles of candidate insecticide on the surface of the diet, five-day exposure; for Percent Mortality: compared to total number of insects infested; for Percent Growth Inhibition: inhibition of insect weight relative to untreated controls
Experimental: Candidate insecticides were evaluated for activity against the tobacco budworm (Heliothis virescens [Fabricius]) in a surface-treated diet test.
In this test one mL of molten (65–70° C.) wheat germ-based artificial diet was pipetted into each well of a four by six (24 well) multi-well plate (ID# 430345-15.5 mm dia.×17.6 mm deep; Corning Costar Corp., One Alewife Center, Cambridge, Mass. 02140). The diet was allowed to cool to ambient temperature before treatment with candidate insecticide.
For a determination of insecticidal activity, solutions of the candidate insecticides were prepared for testing using a Packard 204DT Multiprobe® Robotic System (Packard Instrument Company, 800 Research Parkway, Meriden, Conn. 06450), in which the robot first diluted a standard 50 millimolar DMSO solution of candidate insecticide with a 1:1 water/acetone solution (V/V) in a ratio of 1:7 stock solution to water/acetone. The robot subsequently pipetted 40 microliters of the so-prepared solution onto the surface of the diet in each of three wells in the 24 multi-well plate. The process was repeated with solutions of seven other candidate insecticides. Once treated, the contents of the multi-well plate were allowed to dry, leaving 0.25 millimoles of candidate insecticide on the surface of the diet, or a concentration of 0.25 millimolar. Appropriate untreated controls containing only DMSO on the diet surface were also included in this test. […]
In each well of the test plate was placed one second instar tobacco budworm larvea, each weighing approximately five milligrams. After the larvae were placed in each well, the plate was sealed with clear polyfilm adhesive tape. The tape over each well was perforated to ensure an adequate air supply. The plates were then held in a growth chamber at 25° C. and 60% relative humidity for five days (light 14 hours/day).
After the five-day exposure period insecticidal activity for each rate of application of candidate insecticide was assessed as percent inhibition of insect weight relative to the weight of insects from untreated controls, and percent mortality when compared to the total number of insects infested.
The test compounds of formula I are identified by numbers that correspond to those in Table 1.
These tests were conducted with 0.25 millimoles of candidate insecticide on the surface of the diet.

SMILES | Percent Mortality | Percent Growth Inhibition
CCOC(=O)Nc1ccc(C[N+]2([O-])CCC(=C(c3ccc(C(F)(F)F)cc3)c3ccc(C(F)(F)F)cc3)CC2)cc1 (stereo not drawn) [Compound 101, N-{4-[(4-{bis[4-(trifluoromethyl)phenyl]methylene}piperidyl)methyl]phenyl}ethoxycarboxamide, N-oxide] | 100% | 100%
CCCOC(=O)Nc1ccc(C[N+]2([O-])CCC(=C(c3ccc(C(F)(F)F)cc3)c3ccc(C(F)(F)F)cc3)CC2)cc1 (stereo not drawn) [Compound 102] | 100% | 100%
CC(C)OC(=O)Nc1ccc(C[N+]2([O-])CCC(=C(c3ccc(C(F)(F)F)cc3)c3ccc(C(F)(F)F)cc3)CC2)cc1 (stereo not drawn) [Compound 103] | 100% | 100%
CC(C)COC(=O)Nc1ccc(C[N+]2([O-])CCC(=C(c3ccc(C(F)(F)F)cc3)c3ccc(C(F)(F)F)cc3)CC2)cc1 (stereo not drawn) [Compound 104] | 100% | 100%
[O-][N+]1(Cc2ccc(OCc3nccs3)cc2)CCC(=C(c2ccc(C(F)(F)F)cc2)c2ccc(C(F)(F)F)cc2)CC1 (stereo not drawn) [Compound 105] | 100% | 100%
[O-][N+]1(Cc2ccc(Oc3ccccn3)cc2)CCC(=C(c2ccc(C(F)(F)F)cc2)c2ccc(C(F)(F)F)cc2)CC1 (stereo not drawn) [Compound 106] | 100% | 100%
[O-][N+]1(Cc2ccc(Oc3ccc(Cl)cn3)cc2)CCC(=C(c2ccc(C(F)(F)F)cc2)c2ccc(C(F)(F)F)cc2)CC1 (stereo not drawn) [Compound 107] | 100% | 100%
[O-][N+]1(Cc2ccc(Oc3cccc(Cl)n3)cc2)CCC(=C(c2ccc(C(F)(F)F)cc2)c2ccc(C(F)(F)F)cc2)CC1 (stereo not drawn) [Compound 108] | 100% | 100%
[O-][N+]1(Cc2ccc(Oc3ncccc3C(F)(F)F)cc2)CCC(=C(c2ccc(C(F)(F)F)cc2)c2ccc(C(F)(F)F)cc2)CC1 (stereo not drawn) [Compound 109] | 100% | 100%
N#Cc1ccc(Oc2ccc(C[N+]3([O-])CCC(=C(c4ccc(C(F)(F)F)cc4)c4ccc(C(F)(F)F)cc4)CC3)cc2)nc1 (stereo not drawn) [Compound 111] | 100% | 100%
Cn1nnc(-c2ccc(C[N+]3([O-])CCC(=C(c4ccc(C(F)(F)F)cc4)c4ccc(C(F)(F)F)cc4)CC3)cc2)n1 (stereo not drawn) [Compound 112] | 100% | 100%
CCn1nnc(-c2ccc(C[N+]3([O-])CCC(=C(c4ccc5c(c4)OC(F)(F)O5)c4ccc5c(c4)OC(F)(F)O5)CC3)cc2)n1 (stereo not drawn) [Compound 115] | 100% | 100%
FC(F)(F)c1ccc(C(=C2CC3CCCC(C2)N3Cc2ccc(Oc3ccccn3)cc2)c2ccc(C(F)(F)F)cc2)cc1 [Compound 117, 2-{4-[(9-aza-3-{bis[4-(trifluoromethyl)phenyl]methylene}bicyclo[3.3.1]non-9-yl)methyl]phenoxy}pyridine] | 100% | 100%
O=C(Nc1ccc(F)cc1)Oc1ccc(CN2CCC(C(OC(=O)Nc3ccc(F)cc3)c3ccc(OC(F)(F)F)cc3)CC2)cc1 (stereo not drawn) [Compound 181] | 100% | 100%
CCON=Cc1ccc(CN2CCC(C(OC(=O)Nc3ccc(Cl)cc3)c3ccc(C(F)(F)F)cc3)CC2)cc1 (stereo not drawn) [Compound 182] | 100% | 100%
